Measured values taken from ChEMBL document CHEMBL1201862, “PubChem BioAssay data set” (2004).
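48-hour exposure; five concentrations; linearly interpolated endpoints. GI50: concentration for 50% inhibition of growth.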 Activity calls are given as the source filed them. Rule as the data show it: active = GI50 up to about 1.1 µM and inactive = higher.

Legend:
Experiment in all cases: growth of human tumour cells (NCI), 48 h
A549 = test system: A549
EKVX = test system: EKVX
HCT-15 = test system: HCT-15
HT-29 = test system: HT-29
KM12 = test system: KM12
M14 = test system: M14
NCI/ADR-RES = test system: NCI/ADR-RES
OVCAR-5 = test system: OVCAR-5
SF-268 = test system: SF-268
SF-539 = test system: SF-539
SK-MEL-2 = test system: SK-MEL-2
SNB-19 = test system: SNB-19
SNB-75 = test system: SNB-75
SR = test system: SR
TK-10 = test system: TK-10
U-251 = test system: U-251
UO-31 = test system: UO-31
HCC 2998 = test system: HCC 2998
HOP-62 = test system: HOP-62
HOP-92 = test system: HOP-92

Row | Structure (SMILES) | GI50 (A549) | GI50 (EKVX) | GI50 (HCT-15) | GI50 (HT-29) | GI50 (KM12) | GI50 (M14) | GI50 (NCI/ADR-RES) | GI50 (OVCAR-5) | GI50 (SF-268) | GI50 (SF-539) | GI50 (SK-MEL-2) | GI50 (SNB-19) | GI50 (SNB-75) | GI50 (SR) | GI50 (TK-10) | GI50 (U-251) | GI50 (UO-31) | GI50 (HCC 2998) | GI50 (HOP-62) | GI50 (HOP-92)
1 | Cc1cccc2sc(-c3ccc(O)cc3)nc12 | 12.8 µM (inactive) | 0.579 µM (active) | 12.6 µM | 15.3 µM (inactive) | 15.5 µM (inactive) | 15.2 µM (inactive) | 19.3 µM (inactive) | 16.4 µM (inactive) | 16.6 µM (inactive) | 21.5 µM (inactive) | 17.7 µM (inactive) | 17.8 µM (inactive) | 12.6 µM (inactive) | 22 µM (inactive) | 22.5 µM (inactive) | 19.3 µM (inactive) | 13.6 µM (inactive) | – | – | –
2 | Cc1ccc(NC(=O)CC(=O)n2nc(-c3ccccc3)c(/N=N/c3ccccc3C(=O)O)c2-c2ccccc2)cc1 | > 100 µM (inactive) | 1.91 µM (inactive) | > 100 µM | – | > 100 µM (inactive) | – | – | > 100 µM (inactive) | > 100 µM (inactive) | > 100 µM (inactive) | > 100 µM (inactive) | > 100 µM (inactive) | – | > 100 µM (inactive) | 38.6 µM (inactive) | – | 28.8 µM (inactive) | 66.2 µM (inactive) | > 100 µM (inactive) | > 100 µM (inactive)
3 | COc1nc(Cl)nc(N[C@H](C)c2c3ccccc3cc3ccccc23)n1 | 27.7 µM (inactive) | 16.1 µM (inactive) | 13.3 µM | 15.5 µM (inactive) | 11.7 µM (inactive) | – | 14.2 µM (inactive) | 17.3 µM (inactive) | 18 µM (inactive) | 17.8 µM (inactive) | 15.8 µM (inactive) | 16.3 µM (inactive) | 21.8 µM (inactive) | – | 0.807 µM (active) | 16.4 µM (inactive) | 16.9 µM (inactive) | – | 14.9 µM (inactive) | 18.6 µM (inactive)
4 | COc1c2ccoc2c(S(=O)(=O)Nc2ccc(Cl)cc2)c2oc(C)cc(=O)c12 | > 100 µM (inactive) | > 100 µM (inactive) | > 100 µM | > 100 µM (inactive) | > 100 µM (inactive) | – | > 100 µM (inactive) | > 100 µM (inactive) | 52.6 µM (inactive) | 31.3 µM (inactive) | > 76.2 µM (inactive) | 99.1 µM (inactive) | 27.2 µM (inactive) | – | – | > 100 µM (inactive) | > 50.9 µM (inactive) | > 100 µM (inactive) | > 89.5 µM (inactive) | 41.9 µM (inactive)
5 | CCN(CC)CCCNC(=O)c1ccccc1Nc1c(Cl)cccc1Cl | 15.7 µM (inactive) | 11.1 µM (inactive) | 12.6 µM | 4.23 µM (inactive) | – | 2.64 µM (inactive) | – | 11.7 µM (inactive) | 15.5 µM (inactive) | 11.4 µM (inactive) | – | 15.6 µM (inactive) | 3.43 µM (inactive) | 10.8 µM (inactive) | 11.3 µM (inactive) | – | 6.79 µM (inactive) | 7.03 µM (inactive) | 11.9 µM (inactive) | –
6 | O=C1CN2Cc3cc(N4CCOCC4)ccc3N=C2N1 | – | – | 22.9 µM | 38 µM (inactive) | 43.3 µM (inactive) | 33 µM (inactive) | 31.3 µM (inactive) | 87.3 µM (inactive) | – | – | 42.7 µM (inactive) | > 100 µM (inactive) | 31.5 µM (inactive) | 66.1 µM (inactive) | > 100 µM (inactive) | 39.4 µM (inactive) | 33.4 µM (inactive) | – | 47.1 µM (inactive) | > 100 µM (inactive)
7 | O=c1cnn(C/C=C/CP(=O)(O)O)c(=O)[nH]1 | > 100 µM (inactive) | > 100 µM (inactive) | > 100 µM | – | > 100 µM (inactive) | > 100 µM (inactive) | > 100 µM (inactive) | > 100 µM (inactive) | > 100 µM (inactive) | > 100 µM (inactive) | > 100 µM (inactive) | > 100 µM (inactive) | > 100 µM (inactive) | > 100 µM (inactive) | > 100 µM (inactive) | > 100 µM (inactive) | > 100 µM (inactive) | > 100 µM (inactive) | > 100 µM (inactive) | > 100 µM (inactive)
8 | O=C(Nc1ccc(I)cc1C(=O)NCCO)c1cccs1 | 82.8 µM (inactive) | > 100 µM (inactive) | > 100 µM | > 100 µM (inactive) | > 100 µM (inactive) | > 100 µM (inactive) | > 100 µM (inactive) | > 100 µM (inactive) | > 100 µM (inactive) | > 100 µM (inactive) | > 100 µM (inactive) | > 100 µM (inactive) | – | 49.7 µM (inactive) | – | > 100 µM (inactive) | > 100 µM (inactive) | > 100 µM (inactive) | > 100 µM (inactive) | –
9 | CCOC(=O)C(C)OC(=O)c1ccc(C)cc1 (stereo not given) | > 100 µM (inactive) | > 100 µM (inactive) | > 100 µM | > 100 µM (inactive) | > 100 µM (inactive) | > 100 µM (inactive) | – | > 100 µM (inactive) | > 100 µM (inactive) | > 100 µM (inactive) | > 100 µM (inactive) | > 100 µM (inactive) | > 100 µM (inactive) | > 100 µM (inactive) | > 100 µM (inactive) | > 100 µM (inactive) | > 100 µM (inactive) | > 100 µM (inactive) | – | > 100 µM (inactive)
10 | COC1=CC(=O)c2c(c(COC(C)=O)cn2C)C1=O | 0.207 µM (active) | 0.279 µM (active) | 0.0197 µM | 0.0261 µM (active) | 0.0962 µM (active) | 0.0632 µM (active) | 0.061 µM (active) | 0.0223 µM (active) | 0.173 µM (active) | 0.138 µM (active) | 0.163 µM (active) | 0.345 µM (active) | 0.308 µM (active) | 0.211 µM (active) | 0.0408 µM (active) | 0.129 µM (active) | 0.159 µM (active) | – | – | 0.291 µM (active)
11 | O=C(O)CCCCCCC[C@@H]1S[C@H]1CCCCCCO | > 100 µM (inactive) | > 100 µM (inactive) | > 100 µM | > 100 µM (inactive) | > 100 µM (inactive) | – | > 100 µM (inactive) | > 100 µM (inactive) | > 100 µM (inactive) | > 100 µM (inactive) | > 100 µM (inactive) | > 100 µM (inactive) | > 100 µM (inactive) | – | – | > 100 µM (inactive) | > 100 µM (inactive) | > 100 µM (inactive) | > 100 µM (inactive) | 33.8 µM (inactive)
12 | Nc1nc(N)nc(-c2ccccc2NS(=O)(=O)c2ccc([N+](=O)[O-])cc2)n1 | > 91.2 µM (inactive) | > 100 µM (inactive) | > 84.5 µM | 53.7 µM (inactive) | 84.9 µM (inactive) | – | 17.3 µM (inactive) | > 100 µM (inactive) | 96.8 µM (inactive) | > 100 µM (inactive) | 81.5 µM (inactive) | > 100 µM (inactive) | > 52.2 µM (inactive) | – | – | > 84.9 µM (inactive) | > 54.8 µM (inactive) | > 70.5 µM (inactive) | > 100 µM (inactive) | > 100 µM (inactive)
13 | CS(=O)(=O)c1ccc2nc(-c3ccc(O)cc3)sc2c1 | 16.4 µM (inactive) | 10.5 µM (inactive) | 16.9 µM | 13.2 µM (inactive) | 16 µM (inactive) | 21.6 µM (inactive) | 13.8 µM (inactive) | 17.7 µM (inactive) | 15.5 µM (inactive) | 11 µM (inactive) | 20 µM (inactive) | 17.4 µM (inactive) | – | 10.1 µM (inactive) | 16.3 µM (inactive) | 19 µM (inactive) | 14.8 µM (inactive) | – | – | –
14 | COc1ccc2[nH]c(C(=O)N3CC(CCl)c4c3cc(N)c3ccccc43)cc2c1 (stereo not given) | < 0.01 µM (active) | < 0.01 µM (active) | < 0.01 µM | < 0.01 µM (active) | < 0.01 µM (active) | < 0.01 µM (active) | < 0.01 µM (active) | < 0.01 µM (active) | < 0.01 µM (active) | < 0.01 µM (active) | 0.0122 µM (active) | < 0.0154 µM (active) | < 0.01 µM (active) | < 0.01 µM (active) | < 0.01 µM (active) | < 0.01 µM (active) | < 0.01 µM (active) | < 0.01 µM (active) | < 0.01 µM (active) | < 0.018 µM (active)
15 | COc1ccc2c(=O)c(O)c(-c3ccc(OC)c(OC)c3)oc2c1 | 4.92 µM (inactive) | 6.95 µM (inactive) | 3.5 µM | 4.92 µM (inactive) | – | 5.45 µM (inactive) | 2.23 µM (inactive) | 20.8 µM (inactive) | 4.84 µM (inactive) | – | – | 15.8 µM (inactive) | – | 4.08 µM (inactive) | 4.91 µM (inactive) | 3.52 µM (inactive) | 2.47 µM (inactive) | 27.9 µM (inactive) | 3.98 µM (inactive) | 4.18 µM (inactive)
16 | CC(C)CC/N=c1/cc2n(-c3ccc(Cl)cc3)c3ccccc3nc-2cc1Nc1ccc(Cl)cc1 | 15.3 µM (inactive) | 6.12 µM (inactive) | 3.42 µM | 2.52 µM (inactive) | 4.3 µM (inactive) | – | 10.1 µM (inactive) | 12.4 µM (inactive) | 27.5 µM (inactive) | 16 µM (inactive) | 3.96 µM (inactive) | 32.3 µM (inactive) | 9.75 µM (inactive) | – | – | 8.67 µM (inactive) | 5.56 µM (inactive) | 3.86 µM (inactive) | 8.71 µM (inactive) | 4.92 µM (inactive)
17 | O=C(O)CC/C(=N\Nc1nsc2ccccc12)c1ccccc1 | > 100 µM (inactive) | > 100 µM (inactive) | 36 µM | 34.4 µM (inactive) | > 100 µM (inactive) | 54.5 µM (inactive) | – | > 100 µM (inactive) | 39.4 µM (inactive) | > 100 µM (inactive) | > 100 µM (inactive) | > 100 µM (inactive) | 0.82 µM (active) | 24.9 µM (inactive) | > 100 µM (inactive) | 39.1 µM (inactive) | > 100 µM (inactive) | 30.5 µM (inactive) | 97.5 µM (inactive) | 51.3 µM (inactive)
